Results as given in patent US10597370B2, “2-(benzothiazol-2-yl)-2-cyano-acetamide derivatives and their use as endothelial lipase inhibitors” (BRISTOL-MYERS SQUIBB COMPANY, priority 2016, dated 2020).
pIC50: −log10 of the molar value.

Target: T1, Endothelial lipase (EL) (Homo sapiens, UniProt Q9Y5X9)
T1 construct: transformed by RAGE technology (Athersys) to overexpress endogenous EL; endogenous in cells; the conditioned medium served as the enzyme source
T1 sequence (Q9Y5X9 21-500): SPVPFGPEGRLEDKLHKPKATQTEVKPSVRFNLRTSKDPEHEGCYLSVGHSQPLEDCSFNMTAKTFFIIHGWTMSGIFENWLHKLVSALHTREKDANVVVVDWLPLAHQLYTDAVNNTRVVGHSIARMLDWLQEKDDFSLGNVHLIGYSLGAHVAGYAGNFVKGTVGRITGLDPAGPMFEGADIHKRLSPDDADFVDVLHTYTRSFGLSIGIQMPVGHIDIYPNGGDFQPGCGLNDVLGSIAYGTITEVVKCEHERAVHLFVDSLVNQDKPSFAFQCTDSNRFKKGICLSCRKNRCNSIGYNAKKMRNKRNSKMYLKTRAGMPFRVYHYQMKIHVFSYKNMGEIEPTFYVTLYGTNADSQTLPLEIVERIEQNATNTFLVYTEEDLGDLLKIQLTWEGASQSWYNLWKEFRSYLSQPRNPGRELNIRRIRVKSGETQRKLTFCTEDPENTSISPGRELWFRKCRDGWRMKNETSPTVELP
Assay: Endothelial lipase (EL) enzymatic assay with fluorescent substrate A10070 in DMPG vesicles
Format: biochemical
Conditions: conditioned media from HT-1080 cells overexpressing endogenous EL; 20 min preincubation at 37° C.
Procedure: Endothelial lipase activity was measured using a fluorescent substrate, A10070, (Invitrogen, CA) doped into an artificial vesicle containing DMPG (Avanti Polar Lipids) as the excipient. Vesicles were prepared by combining 285 μL of 1 mM DMPG in a 1:1 mixture of MeOH and CHCl3 with 15 μL of 1 mM A10070 in a 1:1 mixture of MeOH and CHCl3. The mixture was dried under nitrogen and resuspended in 150 μL of 50 mM HEPES pH 8.0 buffer containing 100 mM NaCl and 0.2 mM EDTA. The sample was allowed to sit at rt for 15 min and then was sonicated 3×4 mins on ice with a Branson Sonicator using duty cycle 1. This preparation provides vesicles with a mole fraction of 0.05 for the FRET substrate.
The enzymatic assay was measured using white, opaque 96-well half area plates. Each well contained 60 μL of assay buffer (50 mM HEPES pH 8.0, 50 mM NaCl and 1 mM CaCl2) and 2 ul of a DMSO solution containing compound of interest. Conditioned media obtained from HT-1080 cells, which were transformed by RAGE technology (Athersys) to overexpress endogenous EL, was added and the reaction was allowed to incubate for 20 min at 37° C. with gentle agitation. The reaction was started by the addition of 20 μL of a 1:4 dilution of vesicles. The final total reaction volume was 100 μL. The reaction rates were measured on a Gemini plate reader with an excitation wavelength of 488 nm and an emission of 530 nm. Readings were taken every 20 seconds for 10 min with agitation between each reading. The slope of the linear portion of the readout was used to calculate the rate of the reaction.

CN(C)C(=O)c1cccc(-c2ccc3nc(C(C#N)C(=O)NCC(=O)NC4CC4)sc3c2)c1 (centres unmarked) [Example 2, 3-{2-[cyano ({[(cyclopropyl-carbamoyl)methyl]carbamoyl})methyl]-1,3-benzothiazol-6-yl}-N,N-dimethyl-benzamide]
pIC50: 6.40

CN(C)C(=O)c1ccc(-c2ccc3nc(C(C#N)C(=O)NCC(=O)NC4CC4)sc3c2)cc1F (centres unmarked) [Example 3, 4-{2-[cyano ({[(cyclopropyl-carbamoyl)methyl]carbamoyl})methyl]-1,3-benzothiazol-6-yl}-2-fluoro-N,N-dimethyl-benzamide]
pIC50: 6.62
